The values that follow come from patent US20250129088A1, “CEREBLON E3 UBIQUITIN LIGASE INHIBITOR” (Gan & Lee Pharmaceuticals Co., Ltd., priority 2022, published 2025).

The target of assay [1] is E3 ubiquitin ligase CRBN (Homo sapiens (Human), UniProt Q96SW2). The assay can be described thus: CRBN binding activity, HTRF competition with Thalidomide-Red (CEREBLON BINDING KIT). The conditions noted are these: competition with XL665-labelled thalidomide, 3 hours room temperature. The protocol:
From this, the binding force of the compounds to the CRBN protein was determined.
CRBN binding activity test kit (CEREBLON BINDING KITS (PE, 64BDCRBNPEG).
The detection is based on homogeneous time-resolved fluorescence (HTRF) technology.
The donor used in this kit was Europium-labeled GST antibody (GST Eu Cryptate Antibody), and the acceptor was thalidomide labeled with XL665 (Thalidomide-Red reagent). The donor binded to the CRBN protein containing the GST tag.
The donor and acceptor were diluted 50 times using the binding buffer from the kit (PROTAC binding buffer 1). The CRBN protein was diluted 45 times. The disclosed compound solution at 8 mM was diluted 10 times with the diluent from the kit (1× diluent), followed by a five-fold gradient dilution, performed 7 times sequentially.
Incubate at room temperature for 3 hours.
The ratio of the emission signals from the acceptor and donor in each individual well is calculated.
The coefficient of variation (CV)=standard deviation (SD)/mean Ratio*100
Using GraphPad Prism, IC50 values were calculated based on compound concentration, Ratio and coefficient of variation.
(In TR-FRET formats the signal depends on donor and acceptor labels being close together.)

For assay [2], the system named is NCI-H358 cells. The assay can be described thus: NCI-H358 cell proliferation inhibition, CCK-8. It is filed as cell-based. The conditions noted are these: Homo sapiens, 96 h, NCI-H358, 4 days. Here is the method:
The complete medium required for NCI-H358 cells is RPMI1640 (ATCC, Product number: 30-2001) basal medium containing 10% fetal bovine serum. NCI-H358 cells were seeded in a 96-well plate at a density of 2,800 cells/well, and the next day, different concentrations of the compounds of the present invention were prepared to treat the cells, and the cells were treated for 4 days in a 37° C., 5% CO2 cell culture incubator. Cell viability was detected using a CCK-8 kit (Beyotime, Product number: C0040) according to the manufacturer's instructions. According to the inhibition rate, the GraphPad Prism software was used to calculate the IC50 value of each compound for 4 days, and the results are shown in Table 5.

Assay [3] concerns Z138 cells. The assay can be described thus: Z138 cell proliferation inhibition, CCK-8. It is filed as cell-based. The settings on record: Homo sapiens, Z-138, 96 h, Z138, 4 days. The protocol: The complete medium required for Z138 cells is IMDM (ATCC, Product number: 30-2005) basal medium containing 10% horse serum. Z138 cells were seeded in a 96-well plate at a density of 10,000 cells/well, and different concentrations of the compound of the present invention and a positive control sample Ibrutinib (source: Bide Pharmaceuticals) were prepared to treat the cells. The cells were incubated in a 37° C., 5% CO2 cell incubator for 4 days. Cell viability was detected using the CCK-8 kit (Beyotime, Product number: C0040) according to the manufacturer's instructions. According to the inhibition rate, the GraphPad Prism software was used to calculate the IC50 value of each compound for 4 days, and the results are shown in Table 14.

Assay [4] relates to JeKo-1 cells. The assay can be described thus: JeKo-1 cell proliferation inhibition, CCK-8. It is filed as cell-based. The conditions noted are these: Homo sapiens, 96 h, JeKo-1, 4 days. Here is the method:
The complete medium required for JeKo-1 cells is RPMI1640 (ATCC, Product number: 30-2001) basal medium containing 20% fetal bovine serum. The JeKo-1 cells were seeded in a 96-well plate at a density of 10,000 cells/well, and different concentrations of the compounds of the present invention were prepared to treat the cells at the same time. The cells were incubated at a 37° C., 5% CO2 cell culture incubator for 4 days. Cell viability was detected using the CCK-8 kit (Beyotime, Product number: C0040) according to the manufacturer's instructions. According to the inhibition rate, the GraphPad Prism software was used to calculate the IC50 value of each compound for 4 days, and the results are shown in Table 13.

As usually defined, the IC50 is the concentration that gives 50% inhibition. Low values mean greater potency, high ones weaker potency. In turn, `O=C1CCC(N2Cc3cc4c(cc3C2=O)CCC2(CCNCC2)O4)C(=O)N1` (stereo not drawn) [Compound12, 3-(6′-oxo-3′,4′,6′,8′-tetrahydro-7′H-spiro[piperidine-4,2′-pyrano[2,3-f]isoindole]-7′-yl)piperidine-2,6-dione] returned an IC50 in assay [1] of 3 µM. In turn, `O=C1CCC(N2Cc3cc4c(cc3C2=O)CCC2(CNC2)O4)C(=O)N1` (stereo not drawn) [Compound13, 3-(6′-oxo-3′,4′,6′,8′-tetrahydro-7′H-spiro[azetidine-3,2′-pyrano[2,3-f]isoindole]-7′-yl)piperidine-2,6-dione] gave an IC50 in assay [1] of 3.9 µM. On the same count and under the same terms, as for `O=C1CCC(N2Cc3cc4c(cc3C2=O)OCC2(CCNCC2)O4)C(=O)N1` (stereo not drawn) [Compound16, 3-(6′-oxo-6′,8′-dihydro-3′H,7′H-spiro[piperidine-4,2′-[1,4]dioxino[2,3-f]isoindole]-7′-yl)piperidine-2,6-dione], the figure is 1.2 µM. On to `O=C1CCC(N2C(=O)c3cc4c(cc3C2=O)C2(CCNCC2)CO4)C(=O)N1` (stereo not drawn) [Compound17, 6-(2,6-dioxopiperidin-3-yl)-6-hydro-2H, 5H-spiro[[2,3-f]isoindole-3,4′-piperidin]-5,7-dione], for which the IC50 in assay [1] turned out to be 15.2 µM. In assay [1], `O=C1CCC(N2C(=O)c3ccc4c(c3C2=O)C2(CCNCC2)CO4)C(=O)N1` (stereo not drawn) [Compound27, 2-(2,6-dioxopiperidin-3-yl)-2-hydro-1H,7H-spiro[furo[3,2-e]isoindole-8,4′-piperidine]-1,3-dione] showed an IC50 of 36.4 µM. For `COc1cc2ncnc(Nc3ccc(F)c(Cl)c3)c2cc1OCCCN1CCN(CCOCCC(=O)N2CCC3(CCc4cc5c(cc4O3)C(=O)N(C3CCC(=O)NC3=O)C5)CC2)CC1` (stereo not drawn) [PROTAC 17, 3-(1-(3-(2-(4-(3-((4-((3-chloro-4-fluorophenyl)amino)-7-methoxyquinazolin-6-yl)oxy)propyl)piperazin-1-yl)ethoxy)propionyl)-8′-oxo-3′,4′,6′,8′-tetrahydro-7′H-spiro[piperidine-4,2′-pyrano[2,3-f]isoindole]-7′-yl)piperidine-2,6-dione], half-maximal inhibition in assay [2] (IC50) required 16.8 µM. On the same count and under the same terms, the result for `COc1cc2ncnc(Nc3ccc(F)c(Cl)c3)c2cc1OCCCN1CCN(CCOCCC(=O)N2CCC3(CC2)COc2cc4c(cc2O3)CN(C2CCC(=O)NC2=O)C4=O)CC1` (stereo not drawn) [PROTAC 18, 3-(1-(3-(2-(4-(3-((4-((3-chloro-4-fluorophenyl)amino)-7-methoxyquinazolin-6-yl)oxy)propyl)piperazin-1-yl)ethoxy)propionyl)-6′-oxo-6′,8′-dihydro-3′H,7′H-spiro[piperidine-4, 2′-[1,4]dioxino[2,3-f]isoindol]-7′-yl)piperidine-2,6-dione] reads 42.6 µM; that for `COc1cc2ncnc(Nc3ccc(F)c(Cl)c3)c2cc1OCCCN1CCN(CCOCCC(=O)N2CCC3(CCc4cc5c(cc4O3)C(=O)N(C3CCC(=O)NC3=O)C5=O)CC2)CC1` (stereo not drawn) [PROTAC 21, 1-(3-(2-(4-(3-((4-((3-chloro-4-fluorophenyl)amino)-7-methoxyquinazolin-6-yl)oxy)propyl)piperazin-1-yl)ethoxy)propionyl)-7′-(2,6-dioxopiperidin-3-yl)-3′,4′-dihydro-6′H-spiro[piperidine-4,2′-pyrano[2,3-f]isoindole]-6′,8′(7′H)-dione], 23.2 µM; that for `COc1cc2ncnc(Nc3ccc(F)c(Cl)c3)c2cc1OCCCN1CCN(CCOCCC(=O)N2CCC3(CC2)COc2cc4c(cc2C3)C(=O)N(C2CCC(=O)NC2=O)C4=O)CC1` (stereo not drawn) [PROTAC 22, 1-(3-(2-(4-(3-((4-((3-chloro-4-fluorophenyl)amino)-7-methoxyquinazolin-6-yl)oxy)propyl)piperazin-1-yl)ethoxy)propionyl)-7′-(2,6-dioxopiperidin-3-yl)-2′H-spiro[piperidine-4,3′-pyrano[2,3-f]isoindole]-6′,8′(4′H,7′H)-dione], 52.1 µM. The same measure, in the same setting: the result for `COc1cc2ncnc(Nc3ccc(F)c(Cl)c3)c2cc1OCCCN1CCN(CCOCCC(=O)N2CC3(CCc4cc5c(cc4O3)C(=O)N(C3CCC(=O)NC3=O)C5=O)C2)CC1` (stereo not drawn) [PROTAC 23, 1-(3-(2-(4-(3-((4-((3-chloro-4-fluorophenyl)amino)-7-methoxyquinazolin-6-yl)oxy)propyl)piperazin-1-yl)ethoxy)propionyl)-7′-(2,6-dioxopiperidin-3-yl)-3′,4′-dihydro-6′H-spiro[azetidine-3,2′-pyrano[2,3-f]isomdole]-6′,8′(7′H)-dione] reads 71.2 µM; that for `COc1cc2ncnc(Nc3ccc(F)c(Cl)c3)c2cc1OCCCN1CCN(CCOCCC(=O)N2CCC3(CC2)COc2cc4c(cc23)C(=O)N(C2CCC(=O)NC2=O)C4=O)CC1` (stereo not drawn) [PROTAC 24, 1′-(3-(2-(4-(3-((4-((3-chloro-4-fluorophenyl)amino)-7-methoxyquinazolin-6-yl)oxy)propyl)piperazin-1-yl)ethoxy)propionyl)-6-(2,6-dioxopiperidin-3-yl)-6-hydro-2H,5H-spiro[furo[2,3-f]isoindole-3,4′-piperdine]-5,7-dione], 31.2 µM.

In the case of `Nc1ncnc2c1c(-c1ccc(Oc3ccccc3)cc1)nn2[C@@H]1CCCN(CCOCCC(=O)N2CCC3(CCc4cc5c(cc4O3)C(=O)N(C3CCC(=O)NC3=O)C5=O)CC2)C1` (stereo partly drawn) [PROTAC 32, 1-(3-(2-((R)-3-(4-amino-3-(4-phenoxyphenyl)-1H-pyrazolo[3,4-d]pyrimidin-1-yl)piperidin-1-yl)ethoxy)propionyl)-7′-(2,6-dioxopiperidin-3-yl)-3′,4′-dihydro-6′H-spiro[piperidin-4,2′-pyrano[2,3-f]isoindole]-6′,8′(7′H)-dione], the IC50 in assay [3] was determined as 16 µM; in assay [4], 18.4 µM. The like results for `Nc1ncnc2c1c(-c1ccc(Oc3ccccc3)cc1)nn2[C@@H]1CCCN(CCOCCC(=O)N2CC3(CCc4cc5c(cc4O3)C(=O)N(C3CCC(=O)NC3=O)C5=O)C2)C1` (stereo partly drawn) [PROTAC 33, 1-(3-(2-((R)-3-(4-amino-3-(4-phenoxyphenyl)-1H-pyrazolo[3,4-d]pyrimidin-1-yl)piperidin-1-yl)ethoxy)propionyl)-7′-(2,6-dioxopiperidin-3-yl)-3′,4′-dihydro-6′H-spiro[azetidine-3,2′-pyrano[2,3-f]isoindole]-6′,8′(7′H)-dione] were, in that order, 34.9 µM and 63.8 µM. The like results for `Nc1ncnc2c1c(-c1ccc(Oc3ccccc3)cc1)nn2[C@@H]1CCCN(CCOCCC(=O)N2CCC3(CCc4cc5c(cc4O3)CN(C3CCC(=O)NC3=O)C5=O)CC2)C1` (stereo partly drawn) [PROTAC 35, 3-(1-(3-(2-((R)-3-(4-amino-3-(4-phenoxyphenyl)-1H-pyrazolo[3,4-d]pyrimidine-1-yl)piperidin-1-yl)ethoxy)propionyl)-6′-oxo-3′,4′,6′,8′-tetrahydro-7′H-spiro[piperidine-4, 2′-pyrano[2,3-f]isoindol]-7′-yl)piperidine-2,6-dione] were, in that order, 22.6 µM and 19.1 µM.

As for `Nc1ncnc2c1c(-c1ccc(Oc3ccccc3)cc1)nn2[C@@H]1CCCN(CCOCCC(=O)N2CCC3(CCc4cc5c(cc4O3)C(=O)N(C3CCC(=O)NC3=O)C5)CC2)C1` (stereo partly drawn) [PROTAC 36, 3-(1-(3-(2-((R)-3-(4-amino-3-(4-phenoxyphenyl)-1H-pyrazolo[3,4-d]pyrimidine-1-yl)piperidin-1-yl)ethoxy)propionyl)-8′-oxo-3′,4′,6′,8′-tetrahydro-7′H-spiro[piperidine-4, 2′-pyrano[2,3-f]isoindol]-7′-yl)piperidine-2,6-dione], the figures for the IC50 in assay [3] and in assay [4] were 25.4 µM and 19.2 µM, respectively. The like results for `Nc1ncnc2c1c(-c1ccc(Oc3ccccc3)cc1)nn2[C@@H]1CCCN(CCOCCC(=O)N2CCC3(CC2)COc2cc4c(cc2O3)CN(C2CCC(=O)NC2=O)C4=O)C1` (stereo partly drawn) [PROTAC 37, 3-(1-(3-(2-((R)-3-(4-amino-3-(4-phenoxyphenyl)-1H-pyrazolo[3,4-d]pyrimidine-1-yl)piperidin-1-yl)ethoxy)propionyl)-6′-oxo-6′,8′-dihydro-3′H,7′H-spiro[piperidine-4,2′-[1,4]dioxino[2,3-f]isoindole]-7′-yl)piperidine-2,6-dione] were, in that order, 36.1 µM and 32.4 µM.
